The target of the assay is bovine cardiac myofibrils (full-length cardiac myosin ATPase in the native sarcomere) (Bos taurus (Bovine), UniProt Q9BE39). The assay can be described thus: Skinned bovine cardiac myofibril ATPase assay (PK/LDH-coupled). The class given is biochemical. The following applies: Ca2+ activating to 75% of maximal rate; for CDMF75 IC15: concentration giving 15% inhibition; for IC50: read-out: CDMF75 IC50. The procedure, abridged: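 Inhibition of steady-state ATPase read at 340 nm through a PK/LDH-coupled NADH system (0.5 mM NADH, 1.5 mM PEP). Detergent-skinned bovine cardiac myofibrils, 1 mg/mL, were tested at pH 6.8 in PIPES/MgCl2 with 50 μM ATP and calcium adjusted to give pCa50 or pCa75 activation.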
bovine cardiac myofibrils (full-length cardiac myosin ATPase in the native sarcomere), sequence (Q9BE39 whole entry): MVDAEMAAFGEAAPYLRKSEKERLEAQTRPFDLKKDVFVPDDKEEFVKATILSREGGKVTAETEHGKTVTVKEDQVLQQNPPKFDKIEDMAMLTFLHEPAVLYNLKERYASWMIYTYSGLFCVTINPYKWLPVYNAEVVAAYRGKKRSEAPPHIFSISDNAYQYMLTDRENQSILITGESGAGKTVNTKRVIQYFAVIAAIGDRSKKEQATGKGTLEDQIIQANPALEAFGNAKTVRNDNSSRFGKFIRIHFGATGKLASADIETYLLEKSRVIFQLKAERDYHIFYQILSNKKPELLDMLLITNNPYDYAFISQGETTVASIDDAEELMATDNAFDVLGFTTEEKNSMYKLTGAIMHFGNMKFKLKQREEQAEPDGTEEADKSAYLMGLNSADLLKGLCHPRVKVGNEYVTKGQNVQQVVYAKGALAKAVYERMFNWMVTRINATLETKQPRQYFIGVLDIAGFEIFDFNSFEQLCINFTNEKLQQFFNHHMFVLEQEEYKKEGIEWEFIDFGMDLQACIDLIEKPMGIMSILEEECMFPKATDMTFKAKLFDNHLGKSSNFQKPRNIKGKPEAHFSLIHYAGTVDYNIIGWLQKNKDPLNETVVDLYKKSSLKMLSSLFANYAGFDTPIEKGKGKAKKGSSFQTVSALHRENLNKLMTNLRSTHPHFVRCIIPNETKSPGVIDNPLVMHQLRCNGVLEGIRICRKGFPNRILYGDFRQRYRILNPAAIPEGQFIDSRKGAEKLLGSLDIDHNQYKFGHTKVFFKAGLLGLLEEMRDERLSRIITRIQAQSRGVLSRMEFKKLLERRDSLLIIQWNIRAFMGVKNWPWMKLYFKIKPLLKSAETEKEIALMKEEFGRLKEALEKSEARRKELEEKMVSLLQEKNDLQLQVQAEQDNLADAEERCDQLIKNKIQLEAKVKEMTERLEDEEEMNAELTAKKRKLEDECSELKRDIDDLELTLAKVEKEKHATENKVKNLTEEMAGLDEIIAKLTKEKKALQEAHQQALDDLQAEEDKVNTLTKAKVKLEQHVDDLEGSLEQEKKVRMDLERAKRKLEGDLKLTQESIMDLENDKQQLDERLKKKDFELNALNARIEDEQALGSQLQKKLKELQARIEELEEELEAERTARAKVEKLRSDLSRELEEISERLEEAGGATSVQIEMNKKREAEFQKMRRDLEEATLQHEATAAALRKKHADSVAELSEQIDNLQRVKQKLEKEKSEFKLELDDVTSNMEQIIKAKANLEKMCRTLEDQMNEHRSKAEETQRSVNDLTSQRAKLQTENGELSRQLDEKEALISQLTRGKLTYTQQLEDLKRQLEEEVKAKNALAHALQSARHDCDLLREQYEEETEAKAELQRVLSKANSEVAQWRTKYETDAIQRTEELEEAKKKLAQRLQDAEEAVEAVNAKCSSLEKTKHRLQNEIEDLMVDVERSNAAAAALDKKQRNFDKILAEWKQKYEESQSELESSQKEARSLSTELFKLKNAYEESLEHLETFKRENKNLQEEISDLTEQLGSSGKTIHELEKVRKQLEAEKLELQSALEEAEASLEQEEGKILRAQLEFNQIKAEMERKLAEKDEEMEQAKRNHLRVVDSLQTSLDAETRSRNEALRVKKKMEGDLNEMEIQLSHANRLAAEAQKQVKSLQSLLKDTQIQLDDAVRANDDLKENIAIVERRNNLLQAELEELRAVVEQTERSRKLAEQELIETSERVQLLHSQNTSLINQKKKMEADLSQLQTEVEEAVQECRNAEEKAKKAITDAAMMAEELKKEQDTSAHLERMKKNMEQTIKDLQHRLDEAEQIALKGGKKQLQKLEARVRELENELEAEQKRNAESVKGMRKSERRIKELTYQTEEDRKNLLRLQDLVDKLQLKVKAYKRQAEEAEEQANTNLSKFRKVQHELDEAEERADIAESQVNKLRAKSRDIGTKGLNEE
bovine cardiac myofibrils (full-length cardiac myosin ATPase in the native sarcomere), sequence (P85100 whole entry partner): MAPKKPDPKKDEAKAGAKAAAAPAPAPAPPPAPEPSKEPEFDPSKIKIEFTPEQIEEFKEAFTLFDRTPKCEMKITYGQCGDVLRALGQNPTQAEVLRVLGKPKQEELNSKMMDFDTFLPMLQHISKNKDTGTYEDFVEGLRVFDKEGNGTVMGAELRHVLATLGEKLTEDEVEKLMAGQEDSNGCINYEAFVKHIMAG
bovine cardiac myofibrils (full-length cardiac myosin ATPase in the native sarcomere), sequence (Q3SZE5 whole entry partner): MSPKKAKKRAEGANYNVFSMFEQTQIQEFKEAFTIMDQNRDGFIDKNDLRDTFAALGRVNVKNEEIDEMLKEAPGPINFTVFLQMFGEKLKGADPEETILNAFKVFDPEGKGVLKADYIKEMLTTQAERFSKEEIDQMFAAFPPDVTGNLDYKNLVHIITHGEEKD

From US12065436B2, “Cardiac sarcomere inhibitors” (Cytokinetics, Inc., priority 2018, dated 2024) come the findings set out here.

The IC50 is the concentration at which inhibition is half-maximal.

On to `Cc1nn(C)cc1C(=O)N[C@@H]1CCc2cc(-c3nc(C(F)F)no3)ccc21` [Compound 214, (R)-N-(5-(3-(difluoromethyl)-1,2,4-oxadiazol-5-yl)-2,3-dihydro-1H-inden-1-yl)-1,3-dimethyl-1H-pyrazole-4-carboxamide], for which the “CDMF75 IC15” value amounted to 1300 nM and the IC50 is 4900 nM.

`CCc1nc(-c2ccc3c(c2)CC[C@H]3NC(=O)c2cnn(CC3(C)COC3)c2)no1` [Compound 507, (R)-N-(5-(5-ethyl-1,2,4-oxadiazol-3-yl)-2,3-dihydro-1H-inden-1-yl)-1-((3-methyloxetan-3-yl)methyl)-1H-pyrazole-4-carboxamide]: the “CDMF75 IC15” value was 32600 nM and the concentration for half-maximal inhibition (IC50) was 39200 nM.

Regarding `CCn1nc(C)c(C(=O)NC2CCc3cc(-c4noc(C(F)F)n4)ccc32)n1` (centres unmarked) [Compound 20, N-(5-(5-(difluoromethyl)-1,2,4-oxadiazol-3-yl)-2,3-dihydro-1H-inden-1-yl)-2-ethyl-5-methyl-2H-1,2,3-triazole-4-carboxamide], the “CDMF75 IC15” value is 2300 nM and the half-inhibitory concentration (IC50) is more than 39200 nM.

In the case of `CCc1cc(-c2ccc3c(c2)OC[C@H]3NC(=O)c2cnn(C)c2)no1` [Compound 423, (S)—N-(6-(5-ethylisoxazol-3-yl)-2,3-dihydrobenzofuran-3-yl)-1-methyl-1H-pyrazole-4-carboxamide], the “CDMF75 IC15” value was found to be 300 nM and the concentration for half-maximal inhibition (IC50) amounted to 1200 nM.

`CCc1nc(-c2ccc3c(c2)CC[C@H]3NC(=O)c2cn(C)nc2C)no1` [Compound 563, (R)-N-(5-(5-ethyl-1,2,4-oxadiazol-3-yl)-2,3-dihydro-1H-inden-1-yl)-1,3-dimethyl-1H-pyrazole-4-carboxamide]: the “CDMF75 IC15” value was 400 nM and the IC50 is 1200 nM.

As to `COCc1nc(-c2ccc3c(c2)CC[C@H]3NC(=O)c2conc2C)no1` [Compound 689, (R)-N-(5-(5-(methoxymethyl)-1,2,4-oxadiazol-3-yl)-2,3-dihydro-1H-inden-1-yl)-3-methylisoxazole-4-carboxamide], the “CDMF75 IC15” value is 600 nM and the half-maximal inhibitory concentration (IC50) was determined as 2100 nM.

On to `Cc1c(C(=O)N[C@@H]2CCc3cc(-c4noc(C(F)F)n4)ccc32)cnn1C` [Compound 91, (R)-N-(5-(5-(difluoromethyl)-1,2,4-oxadiazol-3-yl)-2,3-dihydro-1H-inden-1-yl)-1,5-dimethyl-1H-pyrazole-4-carboxamide], for which the “CDMF75 IC15” value worked out at 500 nM and the 50% inhibitory concentration (IC50) amounted to 1800 nM.

Turning to `CCc1nc(-c2ccc3c(c2)CC[C@H]3NC(=O)c2cc(C(C)O)ccn2)no1` (stereo partly drawn) [Compound 721, N-((R)-5-(5-ethyl-1,2,4-oxadiazol-3-yl)-2,3-dihydro-1H-inden-1-yl)-4-(1-hydroxyethyl)picolinamide], the “CDMF75 IC15” value was 1500 nM and the concentration for half-maximal inhibition (IC50) is 6700 nM.

Turning to `Cn1nccc1C(=O)N[C@@H]1CCc2cc(-c3noc(C4CCO4)n3)ccc21` (stereo partly drawn) [Compound 174, 1-methyl-N-((1R)-5-(5-(oxetan-2-yl)-1,2,4-oxadiazol-3-yl)-2,3-dihydro-1H-inden-1-yl)-1H-pyrazole-5-carboxamide], the “CDMF75 IC15” value was determined as 1100 nM and the IC50 turned out to be 3800 nM.

Consider `Cc1ncc(C(=O)N[C@@H]2CCc3cc(-c4noc(C5CCC5)n4)ccc32)o1` [Compound 410, (R)-N-(5-(5-cyclobutyl-1,2,4-oxadiazol-3-yl)-2,3-dihydro-1H-inden-1-yl)-2-methyloxazole-5-carboxamide], for which the “CDMF75 IC15” value stood at 900 nM and the half-maximal inhibitory concentration (IC50) came out at 3500 nM.

With `[2H]C([2H])([2H])c1nc(-c2ccc3c(c2)OC[C@H]3NC(=O)c2cnc(C)o2)no1` [Compound 267, (S)-2-methyl-N-(6-(5-(methyl-d3)-1,2,4-oxadiazol-3-yl)-2,3-dihydrobenzofuran-3-yl)oxazole-5-carboxamide], the “CDMF75 IC15” value worked out at 1200 nM and the IC50 stood at 4400 nM.

With `Cc1nc(-c2ccc3c(c2)CCC3NC(=O)c2nocc2C)no1` (centres unmarked) [Compound 105, 4-methyl-N-(5-(5-methyl-1,2,4-oxadiazol-3-yl)-2,3-dihydro-1H-inden-1-yl)isoxazole-3-carboxamide], the “CDMF75 IC15” value amounted to 2200 nM and the half-inhibitory concentration (IC50) was 8900 nM.

On to `Cc1noc(-c2ccc3c(c2)CC[C@H]3NC(=O)c2ccnn2C)n1` [Compound 204, (R)-1-methyl-N-(5-(3-methyl-1,2,4-oxadiazol-5-yl)-2,3-dihydro-1H-inden-1-yl)-1H-pyrazole-5-carboxamide], for which the “CDMF75 IC15” value amounted to 500 nM and the half-maximal inhibitory concentration (IC50) came out at 1800 nM.

Turning to `CCc1noc(-c2ccc3c(c2)CC[C@H]3NC(=O)c2ccnn2C)n1` [Compound 257, (R)-N-(5-(3-ethyl-1,2,4-oxadiazol-5-yl)-2,3-dihydro-1H-inden-1-yl)-1-methyl-1H-pyrazole-5-carboxamide], the “CDMF75 IC15” value came to 400 nM and the half-inhibitory concentration (IC50) is 1000 nM.

With `CCc1nc(-c2ccc3c(c2)OC[C@H]3NC(=O)c2ocnc2C)no1` [Compound 455, (S)-N-(6-(5-ethyl-1,2,4-oxadiazol-3-yl)-2,3-dihydrobenzofuran-3-yl)-4-methyloxazole-5-carboxamide], the “CDMF75 IC15” value was 200 nM and the half-inhibitory concentration (IC50) was 700 nM.

Take `Cc1nc(-c2ccc3c(c2)CCC3NC(=O)c2ccccc2)no1` (centres unmarked) [Compound 2, N-(5-(5-methyl-1,2,4-oxadiazol-3-yl)-2,3-dihydro-1H-inden-1-yl)benzamide]: the “CDMF75 IC15” value was determined as 600 nM and the 50% inhibitory concentration (IC50) is 2000 nM.

For `COCc1nc(-c2ccc3c(c2)CC[C@H]3NC(=O)c2cc(C)no2)no1` [Compound 688, (R)-N-(5-(5-(methoxymethyl)-1,2,4-oxadiazol-3-yl)-2,3-dihydro-1H-inden-1-yl)-3-methylisoxazole-5-carboxamide], the “CDMF75 IC15” value was determined as 1700 nM and the IC50 is 6800 nM.

On to `Cc1cc(C(=O)N[C@@H]2CCc3cc(-c4noc(C5CC5)n4)ccc32)ccn1` [Compound 389, (R)-N-(5-(5-cyclopropyl-1,2,4-oxadiazol-3-yl)-2,3-dihydro-1H-inden-1-yl)-2-methylisonicotinamide], for which the “CDMF75 IC15” value was found to be 600 nM and the IC50 is 1900 nM.

Regarding `CCc1nc(-c2ccc3c(c2)CC[C@H]3NC(=O)c2ccc(C)nc2)no1` [Compound 625, (R)-N-(5-(5-ethyl-1,2,4-oxadiazol-3-yl)-2,3-dihydro-1H-inden-1-yl)-6-methylnicotinamide], the “CDMF75 IC15” value was determined as 800 nM and the IC50 was found to be 3000 nM.

As to `Cc1c(C(=O)N[C@@H]2CCc3cc(-c4noc(C5CC5)n4)ccc32)cnn1C` [Compound 153, (R)-N-(5-(5-cyclopropyl-1,2,4-oxadiazol-3-yl)-2,3-dihydro-1H-inden-1-yl)-1,5-dimethyl-1H-pyrazole-4-carboxamide], the “CDMF75 IC15” value amounted to 500 nM and the half-inhibitory concentration (IC50) worked out at 1900 nM.

For the compound `CCc1nc(-c2ccc3c(c2)CC[C@H]3NC(=O)c2cncc(C)c2)no1` [Compound 626, (R)-N-(5-(5-ethyl-1,2,4-oxadiazol-3-yl)-2,3-dihydro-1H-inden-1-yl)-5-methylnicotinamide], the “CDMF75 IC15” value worked out at 500 nM and the IC50 came out at 1600 nM.

Consider `Cc1nc(-c2ccc3c(c2)CC[C@H]3NC(=O)c2cn[nH]c2)no1` [Compound 487, (R)-N-(5-(5-methyl-1,2,4-oxadiazol-3-yl)-2,3-dihydro-1H-inden-1-yl)-1H-pyrazole-4-carboxamide], for which the “CDMF75 IC15” value was found to be 900 nM and the IC50 is 3400 nM.
